Values joined by “and” are separate entries in the source; they are usually repeats but may differ in a detail not shown here. Identical values can stand only once. Toxic doses and inconclusive results are not listed. Rule as the data show it: active = T/C of 150% or more; inactive = T/C below 125%.
Tested on: L1210 leukemia ip in BDF1 mice, survival T/C
Assay: NCI In Vivo Anticancer Drug Screen. Data for tumor model L1210 Leukemia (intraperitoneal) in B6D2F1 (BDF1) mice
Conditions: endpoint: mean survival time, higher = longer survival
Outline: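 Ratio derived from survival: compound-dosed mice over vehicle-dosed mice, all bearing a transplantable tumor.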

[1] = dose: 100.0 mg/kg/injection, schedule: Q01DX001 (ip), vehicle: saline
[2] = dose: 100.0 mg/kg/injection, schedule: Q01DX009 (ip), vehicle: saline with Tween-80
[3] = dose: 100.0 mg/kg/injection, schedule: Q04DX003 (ip), vehicle: saline
[4] = dose: 200.0 mg/kg/injection, schedule: Q01DX001 (ip), vehicle: saline
[5] = dose: 200.0 mg/kg/injection, schedule: Q01DX009 (ip), vehicle: saline with Tween-80
[6] = dose: 200.0 mg/kg/injection, schedule: Q04DX003 (ip), vehicle: saline
[7] = dose: 400.0 mg/kg/injection, schedule: Q01DX001 (ip), vehicle: saline
[8] = dose: 400.0 mg/kg/injection, schedule: Q01DX009 (ip), vehicle: saline with Tween-80
[9] = dose: 400.0 mg/kg/injection, schedule: Q04DX003 (ip), vehicle: saline
[10] = dose: 50.0 mg/kg/injection, schedule: Q01DX009 (ip), vehicle: saline
[11] = dose: 100.0 mg/kg/injection, schedule: Q04DX003 (ip), vehicle: saline with Tween-80
[12] = dose: 200.0 mg/kg/injection, schedule: Q04DX003 (ip), vehicle: saline with Tween-80
[13] = dose: 400.0 mg/kg/injection, schedule: Q04DX003 (ip), vehicle: saline with Tween-80
[14] = dose: 50.0 mg/kg/injection, schedule: Q04DX002 (ip), vehicle: Klucel (hydroxypropylcellulose) (HPC)
[15] = dose: 100.0 mg/kg/injection, schedule: Q04DX002 (ip), vehicle: Klucel (hydroxypropylcellulose) (HPC)
[16] = dose: 100.0 mg/kg/injection, schedule: Q01DX009 (ip), vehicle: Klucel (hydroxypropylcellulose) (HPC)
[17] = dose: 100.0 mg/kg/injection, schedule: Q04DX003 (ip), vehicle: Klucel (hydroxypropylcellulose) (HPC)
[18] = dose: 200.0 mg/kg/injection, schedule: Q01DX009 (ip), vehicle: Klucel (hydroxypropylcellulose) (HPC)
[19] = dose: 200.0 mg/kg/injection, schedule: Q04DX003 (ip), vehicle: Klucel (hydroxypropylcellulose) (HPC)
[20] = dose: 400.0 mg/kg/injection, schedule: Q01DX009 (ip), vehicle: Klucel (hydroxypropylcellulose) (HPC)
[21] = dose: 400.0 mg/kg/injection, schedule: Q04DX003 (ip), vehicle: Klucel (hydroxypropylcellulose) (HPC)
[22] = dose: 100.0 mg/kg/injection, schedule: Q01DX001 (ip), vehicle: Klucel (hydroxypropylcellulose) (HPC)
[23] = dose: 200.0 mg/kg/injection, schedule: Q01DX001 (ip), vehicle: Klucel (hydroxypropylcellulose) (HPC)
[24] = dose: 25.0 mg/kg/injection, schedule: Q04DX002 (ip), vehicle: Klucel (hydroxypropylcellulose) (HPC)
[25] = dose: 50.0 mg/kg/injection, schedule: Q01DX001 (ip), vehicle: Klucel (hydroxypropylcellulose) (HPC)

Measured: T/C

COc1cccc(C2NC(=S)N3C(c4cccc(OC)c4)NC(=S)N23)c1 (centres undefined)
inactive: dose: 100.0 mg/kg/injection, schedule: Q01DX009 (ip), vehicle: gum acacia 108 % of control | dose: 100.0 mg/kg/injection, schedule: Q04DX003 (ip), vehicle: gum acacia 88 % of control | dose: 200.0 mg/kg/injection, schedule: Q01DX009 (ip), vehicle: gum acacia 99 % of control | dose: 200.0 mg/kg/injection, schedule: Q04DX003 (ip), vehicle: gum acacia 100 % of control | dose: 400.0 mg/kg/injection, schedule: Q01DX009 (ip), vehicle: gum acacia 93 % of control | dose: 400.0 mg/kg/injection, schedule: Q04DX003 (ip), vehicle: gum acacia 95 % of control

COc1ccc(C(=O)CSc2cc[o+]cc2)cc1
inactive: [1] 95 % of control | [2] 94 % of control | [3] 95 % of control | [4] 97 % of control | [5] 104 % of control | [6] 92 % of control | [7] 106 % of control | [8] 90 % of control | [9] 97 % of control

N\C([S-])=N/N=C\C(=N/N=C(\N)[S-])C(O)C(O)C(O)CO.[Pt+2] (centres undefined)
inactive: [10] 91 % of control | [11] 92 % of control | dose: 200.0 mg/kg/injection, schedule: Q01DX009 (ip), vehicle: saline 100 % of control | [12] 89 % of control | [13] 96 % of control

CCCCC(=O)N1C(=O)Cc2ccccc21
inactive: [14] 97 % of control | [15] 97 % of control | dose: 200.0 mg/kg/injection, schedule: Q04DX002 (ip), vehicle: Klucel (hydroxypropylcellulose) (HPC) 97 % of control

CCCCCCC(C)(C)NC(N)=O
inactive: [1] 98 % of control | [4] 101 % of control | [7] 93 % of control

COc1ccc(C2=CCCC2)cc1
inactive: dose: 100.0 mg/kg/injection, schedule: Q01DX001 (ip), vehicle: carboxymethylcellulose (CMC) 91 % of control | [16] 89 % of control | [17] 96 % of control | dose: 200.0 mg/kg/injection, schedule: Q01DX001 (ip), vehicle: carboxymethylcellulose (CMC) 94 % of control | [18] 102 % of control | [19] 101 % of control | dose: 400.0 mg/kg/injection, schedule: Q01DX001 (ip), vehicle: carboxymethylcellulose (CMC) 96 % of control | [20] 89 % of control | [21] 102 % of control

CCc1cc(C)cc(OC(=O)Nc2cc(Cl)ccc2C)c1
inactive: [16] 95 % of control | [18] 90 % of control | [20] 100 % of control

N=C(N)c1cccc(NC(=O)c2ccc(C(=O)Nc3cccc(C(=N)N)c3)cc2)c1
inactive: dose: 8.0 mg/kg/injection, schedule: Q01DX Z (ip), vehicle: carboxymethylcellulose (CMC) 95 % of control | dose: 15.0 mg/kg/injection, schedule: Q01DX Z (ip), vehicle: saline 95 % of control | dose: 16.0 mg/kg/injection, schedule: Q01DX Z (ip), vehicle: carboxymethylcellulose (CMC) 96 % of control | dose: 30.0 mg/kg/injection, schedule: Q01DX Z (ip), vehicle: saline 120 % of control | dose: 31.0 mg/kg/injection, schedule: Q01DX Z (ip), vehicle: carboxymethylcellulose (CMC) 106 % of control | dose: 60.0 mg/kg/injection, schedule: Q01DX Z (ip), vehicle: saline 104 % of control | dose: 62.0 mg/kg/injection, schedule: Q01DX Z (ip), vehicle: carboxymethylcellulose (CMC) 113 % of control

COc1ccccc1-n1c(O)c(N=Nc2ccccc2C)c(=O)n(-c2ccc(Cl)cc2)c1=S
inactive: [22] 95 % of control | [23] 96 % of control | dose: 400.0 mg/kg/injection, schedule: Q01DX001 (ip), vehicle: Klucel (hydroxypropylcellulose) (HPC) 98 % of control

Clc1cc[c]([Sn]([O][Sn]([c]2ccc(Cl)cc2)([c]2ccc(Cl)cc2)[c]2ccc(Cl)cc2)([c]2ccc(Cl)cc2)[c]2ccc(Cl)cc2)cc1
inactive: [24] 107 % of control | [14] 91 % of control

COC(=O)C(C)=O
inactive: [2] 103 % of control | [5] 101 % of control | [8] 98 % of control

O=C(O)C(O)C(Br)C(=O)O (centres undefined)
inactive: dose: 50.0 mg/kg/injection, schedule: Q04DX003 (ip), vehicle: saline 95 % of control | [1] 95 % of control | [3] 104 % of control

O=[N+]([O-])c1cccc(C(O)CC(O)(C(F)(F)F)C(F)(F)F)c1 (centres undefined)
inactive: [2] 98 % of control | [11] 95 % of control | [5] 101 % of control | [12] 97 % of control | [8] 95 % of control | [13] 103 % of control

C(=N\Nc1nc2ccccc2s1)/c1ccc2ccccc2n1
inactive: [16] 96 % of control | [18] 96 % of control

c1cnc2sccc2c1
inactive: dose: 50.0 mg/kg/injection, schedule: Q01DX009 (ip), vehicle: saline with Tween-80 113 % of control | [2] 95 % of control | [11] 102 % of control | [12] 103 % of control

COc1c(C)c2c(c(Br)c1N)COCO2
inactive: [25] 94 % of control | [22] 92 % of control | [17] 95 % of control | [23] 94 % of control | [19] 97 % of control

CCOC(=O)C(=CN1CCOCC1)C(=O)OCC
inactive: [2] 100 % of control | [11] 120 % of control | [5] 100 % of control | [12] 102 % of control | [8] 100 % of control | [13] 98 % of control

NNC(=O)OCCO
inactive: dose: 25.0 mg/kg/injection, schedule: Q01DX009 (ip), vehicle: saline 103 % of control | [10] 104 % of control

CCOC(=O)c1cnc(SC)nc1Nc1ccccc1N
inactive: [25] 94 % of control | [22] 94 % of control | [23] 101 % of control

COc1ccc2c3c([nH]c2c1)C(C)=NCC3
inactive: [24] 93 % of control | [14] 101 % of control | [15] 93 % of control and 89 % of control

Cc1nc(N)[nH]c(=O)c1CCCNS(=O)(=O)c1ccc(N)cc1
inactive: dose: 50.0 mg/kg/injection, schedule: Q01DX001 (ip), vehicle: saline 100 % of control | [1] 97 % of control | [4] 100 % of control | [7] 94 % of control

Cc1ccc(NC(=O)CBr)cc1
inactive: dose: 50.0 mg/kg/injection, schedule: Q01DX001 (ip), vehicle: other 96 % of control

CCOC(=O)N(OC(C)=O)P(=O)(N1CC1)N1CC1
inactive: dose: 100.0 mg/kg/injection, schedule: Q04DX002 (ip), vehicle: saline 100 % of control | dose: 200.0 mg/kg/injection, schedule: Q04DX002 (ip), vehicle: saline 100 % of control | dose: 400.0 mg/kg/injection, schedule: Q04DX002 (ip), vehicle: saline 104 % of control

CCOC(=O)CCCN1CCC=C(C#N)C1
inactive: dose: 75.0 mg/kg/injection, schedule: Q01DX001 (ip), vehicle: saline 102 % of control | dose: 300.0 mg/kg/injection, schedule: Q01DX001 (ip), vehicle: saline 107 % of control

COc1ccc(C(=O)CCS/C(CCO)=C(\C)N(C=O)Cc2cnc(C)nc2N)cc1
inactive: [3] 101 % of control | [6] 101 % of control | [9] 101 % of control

O=C1N(c2nncs2)CCN1[N+](=O)[O-]
inactive: [16] 95 % of control | [17] 95 % of control | [18] 98 % of control | [19] 98 % of control | [20] 103 % of control | [21] 102 % of control

CCC(CC)=NNC(N)=O
inactive: dose: 25.0 mg/kg/injection, schedule: Q04DX003 (ip), vehicle: Klucel (hydroxypropylcellulose) (HPC) 104 % of control | dose: 50.0 mg/kg/injection, schedule: Q04DX003 (ip), vehicle: Klucel (hydroxypropylcellulose) (HPC) 100 % of control | [17] 103 % of control and 104 % of control

O=C(O)CC1(C(=O)O)CCN(Cc2ccccc2)CC1
inactive: [17] 103 % of control | [19] 102 % of control | [21] 100 % of control

CC(=O)NN
inactive: [1] 104 % of control

CCOc1ccc(/C=N/Nc2nnc(N/N=C/c3ccc(OCC)c(OCC)c3)c3ccccc23)cc1OCC
inactive: dose: 50.0 mg/kg/injection, schedule: Q01DX001 (ip), vehicle: carboxymethylcellulose (CMC) 95 % of control

Source: PubChem BioAssay AID248 (DTP/NCI, 2004)
